One block for each compound: values may come before it. Active and inactive are the calls of the source. The calls are words filed in the database; no cut-off is given here.
Experiments:
MDA-MB-231 [1] = assay: Induction of apoptosis in human MDA-MB-231 cells assessed as viable cells level at 40 uM after 48 hrs by Annexin V-FITC and propidium iodide staining method (reference value: 92.6%); type: functional
MDA-MB-231 [2] = assay: Induction of apoptosis in human MDA-MB-231 cells assessed as necrosis cells level at 40 uM after 48 hrs by Annexin V-FITC and propidium iodide staining method (reference value: 3.3%); type: functional
MDA-MB-231 [3] = assay: Antiproliferative activity against human MDA-MB-231 cells assessed as reduction in confluence at 10 uM measured over 120 hrs by crystal violet staining method; type: functional, cell-based
MDA-MB-231 [4] = assay: Induction of cell cycle arrest in human MDA-MB-231 cells assessed as reduction in cell accumulation at S phase at 40 uM after 48 hrs by flow cytometry; type: functional; settings: MDA-MB-231, 48 h
MDA-MB-231 [5] = assay: Reduction in cell viability in human MDA-MB-231 cells at 1 to 40 uM after 48 to 120 hrs in presence of JNK gene silencing RNA; type: functional, cell-based
[6] = biological target: c-Jun N-terminal kinase, JNK (Homo sapiens) (UniProt P45983+P53779+P45984); assay: Induction of JNK phosphorylation in human MDA-MB-231 cells at 40 uM after 48 hrs; type: cell-based
MDA-MB-231 [7] = assay: Antiproliferative activity against human MDA-MB-231 cells assessed as reduction in confluence at 10 uM after 48 hrs by crystal violet staining method; type: functional, cell-based
MDA-MB-231 [8] = assay: Reduction in ATP production in human MDA-MB-231 cells assessed as ATP level at 40 uM after 120 hrs relative to untreated control; type: functional; parameters: scale not given: the % may be the effect or the level left
MDA-MB-231 [9] = assay: Induction of apoptosis in human MDA-MB-231 cells assessed as early apoptosis cells level at 40 uM after 48 hrs by Annexin V-FITC and propidium iodide staining method (reference value: 0.5 %); type: functional
MDA-MB-231 [10] = assay: Induction of apoptosis in human MDA-MB-231 cells assessed as increase in caspase 3 activity at 40 uM after 48 hrs in presence of JNK inhibitor […]; type: functional, cell-based
MDA-MB-231 [11] = assay: Induction of apoptosis in human MDA-MB-231 cells assessed as increase in caspase 3 activity at 40 uM after 48 hrs; type: functional, cell-based
MDA-MB-231 [12] = assay: Induction of cell cycle arrest in human MDA-MB-231 cells assessed as increase in cell accumulation at […] phase at 40 uM after 48 hrs by flow cytometry; type: functional
MDA-MB-231 [13] = assay: Reduction in cell viability in human MDA-MB-231 cells at 1 to 40 uM after 48 to 120 hrs in presence of JNK inhibitor […]; type: functional, cell-based
MDA-MB-231 [14] = assay: Reduction in ATP production in human MDA-MB-231 cells at 20 uM after 48 to 120 hrs in presence of 10 uM AUDA; type: functional, cell-based
MDA-MB-231 [15] = assay: Reduction in ATP production in human MDA-MB-231 cells at 10 uM after 48 to 120 hrs in presence of 10 uM AUDA; type: functional, cell-based
T47D [16] = assay: Reduction in ATP production in human T47D cells at 1 to 40 uM after 48 to 120 hrs; type: functional, cell-based
MDA-MB-231 [17] = assay: Induction of apoptosis in human MDA-MB-231 cells assessed as increase in caspase 3 activity at 40 uM after 48 hrs in presence of JNK gene silencing RNA; type: functional, cell-based
MDA-MB-231 [18] = assay: Induction of apoptosis in human MDA-MB-231 cells at 40 uM after 48 hrs by Annexin V-FITC and propidium iodide staining method; type: functional
MDA-MB-468 [19] = assay: Reduction in ATP production in human MDA-MB-468 cells at 1 to 40 uM after 48 to 120 hrs; type: functional, cell-based
MDA-MB-231 [20] = assay: Induction of apoptosis in human MDA-MB-231 cells assessed as late apoptosis cells level at 40 uM after 48 hrs by Annexin V-FITC and propidium iodide staining method (reference value: 3.7%); type: functional
MDA-MB-231 [21] = assay: Reduction in ATP production in human MDA-MB-231 cells assessed as ATP level at 40 uM after 48 hrs relative to untreated control; type: functional; parameters: scale not given: the % may be the effect or the level left
MDA-MB-468 [22] = assay: Antiproliferative activity against human MDA-MB-468 cells assessed as reduction in confluence at 10 uM after 48 hrs by crystal violet staining method; type: functional, cell-based
MDA-MB-231 [23] = assay: Induction of cell cycle arrest in human MDA-MB-231 cells assessed as reduction in cell accumulation at G2/M phase at 40 uM after 48 hrs by flow cytometry; type: functional; settings: MDA-MB-231, 48 h
T47D [24] = assay: Antiproliferative activity against human T47D cells assessed as reduction in confluence at 10 uM after 48 hrs by crystal violet staining method; type: functional, cell-based
MDA-MB-231 [25] = assay: Reduction in cyclin D1 immunoreactive protein expression in human MDA-MB-231 cells assessed as cyclin D1 level at 40 uM after 48 hrs; type: functional; parameters: scale not given: the % may be the effect or the level left
MDA-MB-231 [26] = assay: Reduction in ATP production in human MDA-MB-231 cells at 40 uM after 120 hrs relative to untreated control; type: functional, cell-based
MDA-MB-231 [27] = assay: Reduction in cell viability in human MDA-MB-231 cells at 1 to 40 uM after 48 to 120 hrs; type: functional, cell-based
MDA-MB-468 [28] = assay: Antiproliferative activity against human MDA-MB-468 cells assessed as reduction in confluence at 40 uM after 48 hrs by crystal violet staining method; type: functional, cell-based
T47D [29] = assay: Reduction in ATP production in human T47D cells at 40 uM after 48 hrs; type: functional, cell-based
T47D [30] = assay: Antiproliferative activity against human T47D cells assessed as reduction in confluence at 40 uM after 48 hrs by crystal violet staining method; type: functional, cell-based
MDA-MB-231 [31] = assay: Antiproliferative activity against human MDA-MB-231 cells assessed as reduction in confluence at >40 uM after 120 hrs by crystal violet staining method; type: functional, cell-based
MDA-MB-231 [32] = assay: Antiproliferative activity against human MDA-MB-231 cells assessed as reduction in confluence at 40 uM after 48 hrs by crystal violet staining method; type: functional, cell-based
MDA-MB-468 [33] = assay: Reduction in ATP production in human MDA-MB-468 cells at 40 uM after 48 hrs; type: functional, cell-based
MDA-MB-231 [34] = assay: Increase in ATP production in human MDA-MB-231 cells at 40 uM after 48 to 120 hrs; type: functional, cell-based

Activity [6]: Active
SMILES: CC[C@@H]1O[C@@H]1CCCCCCCCCCCCCCCC(=O)O (relative stereo)
Activity (MDA-MB-231 [1]): 27.3%
Activity (MDA-MB-231 [2]): 29.4%
inhibition (MDA-MB-231 [3]): Active
inhibition at 40 µM (MDA-MB-231 [4]): 49%
Activity (MDA-MB-231 [5]): inactive
inhibition (MDA-MB-231 [7]): Active
Activity (MDA-MB-231 [8]): 3.2%
Activity (MDA-MB-231 [9]): 4.1%
Activity (MDA-MB-231 [10]): inactive
Activity (MDA-MB-231 [11]): Active
Activity (MDA-MB-231 [12]): 22%
Activity (MDA-MB-231 [13]): inactive
Activity (MDA-MB-231 [14]): inactive
Activity (MDA-MB-231 [15]): Active
Activity (T47D [16]): Active
Activity (MDA-MB-231 [17]): inactive
fold change (FC) (MDA-MB-231 [18]): 5
Activity (MDA-MB-468 [19]): Active
Activity (MDA-MB-231 [20]): 39.2%
Activity (MDA-MB-231 [21]): 45%
inhibition (MDA-MB-468 [22]): Active
inhibition at 40 µM (MDA-MB-231 [23]): 38%
inhibition (T47D [24]): inactive
Activity (MDA-MB-231 [25]): 23%

SMILES: CCCC(=O)NCCCCCCCCCCCCCCCC(=O)O
Activity (MDA-MB-231 [11]): inactive
Activity (MDA-MB-231 [26]): inactive

Activity [6]: Active
SMILES: CC[C@H]1O[C@H]1CCCCCCCCCCCCCCCCC(=O)O (relative stereo)
inhibition (MDA-MB-231 [3]): Active
inhibition at 40 µM (MDA-MB-231 [4]): 33%
inhibition (MDA-MB-231 [7]): Active
Activity (MDA-MB-231 [11]): Active
Activity (MDA-MB-231 [12]): 12%
Activity (T47D [16]): inactive
fold change (FC) (MDA-MB-231 [18]): 5
Activity (MDA-MB-468 [19]): inactive
inhibition (MDA-MB-468 [22]): Active
inhibition at 40 µM (MDA-MB-231 [23]): 30%
inhibition (T47D [24]): inactive
Activity (MDA-MB-231 [25]): 24%

SMILES: CCCCC[C@@H]1O[C@@H]1CCCCCCCCCCCCC(=O)O (relative stereo)
Activity (MDA-MB-231 [27]): inactive
Activity (MDA-MB-231 [11]): inactive

SMILES: CCCNC(=O)NCCCCCCCCCCCCCCCC(=O)O
Activity (MDA-MB-231 [11]): inactive
Activity (MDA-MB-231 [21]): inactive

Activity [6]: inactive
SMILES: CCNC(=O)NCCCCCCCCCCCCCCCCC(=O)O
inhibition (MDA-MB-468 [28]): inactive
inhibition at 40 µM (MDA-MB-231 [4]): 21%
Activity (T47D [29]): inactive
Activity (MDA-MB-231 [11]): Active
Activity (MDA-MB-231 [12]): 6%
inhibition (T47D [30]): inactive
inhibition (MDA-MB-231 [31]): Active
inhibition (MDA-MB-231 [32]): inactive
Activity (MDA-MB-468 [33]): inactive
Activity (MDA-MB-231 [18]): inactive
Activity (MDA-MB-231 [21]): 72%
inhibition at 40 µM (MDA-MB-231 [23]): 9%
Activity (MDA-MB-231 [25]): inactive

Activity [6]: inactive
SMILES: CCNC(=O)NCCCCCCCCCCCCCCCC(=O)O
Activity (MDA-MB-231 [1]): 82.6%
inhibition (MDA-MB-468 [28]): inactive
Activity (MDA-MB-231 [2]): 7.3%
inhibition at 40 µM (MDA-MB-231 [4]): 21%
Activity (MDA-MB-231 [9]): 1.6%
Activity (T47D [29]): inactive
Activity (MDA-MB-231 [11]): Active
Activity (MDA-MB-231 [12]): 6%
inhibition (T47D [30]): inactive
inhibition (MDA-MB-231 [31]): Active
inhibition (MDA-MB-231 [32]): inactive
Activity (MDA-MB-468 [33]): inactive
Activity (MDA-MB-231 [18]): inactive
Activity (MDA-MB-231 [20]): 8.4%
Activity (MDA-MB-231 [21]): 72%
inhibition at 40 µM (MDA-MB-231 [23]): 9%
Activity (MDA-MB-231 [25]): inactive

SMILES: CC(C)(C)NC(=O)NCCCCCCCCCCCCCCCC(=O)O
Activity (MDA-MB-231 [11]): Active
Activity (MDA-MB-231 [21]): inactive

Activity [6]: Active
SMILES: CC[C@@H]1O[C@@H]1CCCCCCCCCCCCCCCCCC(=O)O (relative stereo)
inhibition (MDA-MB-231 [3]): Active
inhibition at 40 µM (MDA-MB-231 [4]): 42%
inhibition (MDA-MB-231 [7]): Active
Activity (MDA-MB-231 [11]): inactive
Activity (MDA-MB-231 [12]): 15%
Activity (T47D [16]): inactive
Activity (MDA-MB-231 [18]): inactive
Activity (MDA-MB-468 [19]): inactive
inhibition (MDA-MB-468 [22]): Active
inhibition at 40 µM (MDA-MB-231 [23]): 19%
inhibition (T47D [24]): inactive
Activity (MDA-MB-231 [25]): 47%

SMILES: CCCCCCCC[C@@H]1O[C@@H]1CCCCCCCCCC(=O)O (relative stereo)
Activity (MDA-MB-231 [27]): inactive
Activity (MDA-MB-231 [11]): inactive
Activity (MDA-MB-231 [34]): Active

Activity [6]: inactive
SMILES: CCNC(=O)NCCCCCCCCCCCCCCCCCC(=O)O
inhibition (MDA-MB-468 [28]): inactive
inhibition at 40 µM (MDA-MB-231 [4]): 21%
Activity (T47D [29]): inactive
Activity (MDA-MB-231 [11]): Active
Activity (MDA-MB-231 [12]): 6%
inhibition (T47D [30]): inactive
inhibition (MDA-MB-231 [31]): Active
inhibition (MDA-MB-231 [32]): inactive
Activity (MDA-MB-468 [33]): inactive
Activity (MDA-MB-231 [18]): inactive
Activity (MDA-MB-231 [21]): 72%
inhibition at 40 µM (MDA-MB-231 [23]): 9%
Activity (MDA-MB-231 [25]): inactive

SMILES: CCCCNC(=O)NCCCCCCCCCCCCCCCC(=O)O
Activity (MDA-MB-231 [11]): Active
Activity (MDA-MB-231 [21]): inactive

SMILES: CCNC(=O)OCCCCCCCCCCCCCCCC(=O)O
Activity (MDA-MB-231 [11]): Active
Activity (MDA-MB-231 [26]): inactive
